Source: patent US20230045616A1, “CANCER TREATMENT METHOD AND MEDICINE” (Nonprofit Organization North East Japan Study Group, priority 2019, published 2023)
Entries after “also recorded” stand apart in the source; their conditions may differ.

Test system: lung cancer
Experiment: CT / X-ray images of cancer tissue in treated lung cancer patients (case reports)
Assay type: in vivo, human

Substance: nivolumab
- cancer tissue in CT images after the treatment (Example 3 patient, nivolumab after administration of Extract Z, FIG. 5): almost eliminated
- primary foci and lymph node metastasis (Example 23 patient, nivolumab alone 240 mg every 2 weeks from September, 2017, progression observed on Nov. 6, 2020): primary foci were almost eliminated and metastasis to the lymph nodes was eliminated
- swelling in the cervical lymph node (CT images) (nivolumab 240 mg every 2 weeks continued after radiation of 30 Gy/10 fr to the cervical lymph node, stage IVb lung cancer patient): suppressed (April and October, 2019) and partially remitted; also recorded: suppressed (May, 2019) and partially remitted
- swelling in the cervical lymph node to which cancer had been metastasized (CT images) (nivolumab alone, 240 mg per dose i.v. drip at an interval of 2 weeks, stage IVb lung cancer patient without driver gene mutation): progressed
